Assays:
Test in all cases: in vitro transcription antitermination dose-response (E. coli RNAP)
[1] = system: pfl ZTP riboswitch with C3-SC1 leader (PRA1_Cap3_SC1_CbePfl_dRP1) (RNA, riboswitch) AUUCGGUGCUCUUCUCUUCGGCCUUCGGGCCAAAUUAGAUAUUAGUCAUAUGACUGACGGAAGUGGAGUUACCACAUGAAGUAUGACUAGGCAUAUUAUCUUAUAUGCCACAAAAAGCCGACCGUCUGGGCAAAAAAAGCCUGGAUUGCGUCGGCUUUUUUAUAUGGAAAAGAUCGUCGGACUGUAGAACUCUGAACGUGUAGAUCUCGGUGGUCGCCGUAUCAUU; details: 50 mM KCl, 10 mM MgCl2; 20 mM Tris-HCl pH 8.0, 37 °C, 500 μM NTPs; up to 1 mM ZMP; readthrough fold-change 7.1
[2] = system: pfl ZTP riboswitch (native, leader-less; PRA1_CbePfl_dRP1) (RNA, riboswitch) AUAUUAGAUAUUAGUCAUAUGACUGACGGAAGUGGAGUUACCACAUGAAGUAUGACUAGGCAUAUUAUCUUAUAUGCCACAAAAAGCCGACCGUCUGGGCAAAAAAAGCCUGGAUUGCGUCGGCUUUUUUAUAUGGAAAAGAUCGUCGGACUGUAGAACUCUGAACGUGUAGAUCUCGGUGGUCGCCGUAUCAUU; details: 50 mM KCl, 10 mM MgCl2; 20 mM Tris-HCl pH 8.0, 37 °C, 500 μM NTPs; up to 1 mM ZMP; readthrough fold-change 3.6
[3] = system: Cba ppGpp riboswitch (native, leader-less; PRA1_Cba2-2_dRP1) (RNA, riboswitch) AUAAUAAGAGAGUGUAUCUAGGGUUCCGGUCAAUAGAUGUCUGGUCCGAGCGAUACAGGAUUUCAAUCUACACUUUUAGGAAAAAAGCCUAAAGGACGAGUCUCUGCAAAGAGAUUUGUUCUUGGGCUUUAUUUUUUUAUCUUUAUUUAAGAUCGUCGGACUGUAGAACUCUGAACGUGUAGAUCUCGGUGGUCGCCGUAUCAUU; details: 50 mM KCl, 10 mM MgCl2; 20 mM Tris-HCl pH 8.0, 37 °C, 500 μM NTPs, NusA only stated for leader assay; readthrough fold-change 1.9
[4] = system: Cba ppGpp riboswitch with C3-SC1 leader (PRA1_Cap3_SC1_Cba2-2_dRP1) (RNA, riboswitch) AUUCGGUGCUCUUCUCUUCGGCCUUCGGGCCAAAAUAAGAGAGUGUAUCUAGGGUUCCGGUCAAUAGAUGUCUGGUCCGAGCGAUACAGGAUUUCAAUCUACACUUUUAGGAAAAAAGCCUAAAGGACGAGUCUCUGCAAAGAGAUUUGUUCUUGGGCUUUAUUUUUUUAUCUUUAUUUAAGAUCGUCGGACUGUAGAACUCUGAACGUGUAGAUCUCGGUGGUCGCCGUAUCAUU; details: 50 mM KCl, 10 mM MgCl2; 20 mM Tris-HCl pH 8.0, 37 °C, 500 μM NTPs, NusA; readthrough fold-change 6.0

Row | SMILES | binding [1] | binding [2] | binding [3] | binding [4]
1 | NC(=O)c1ncn([C@@H]2O[C@H](COP(=O)(O)O)[C@@H](O)[C@H]2O)c1N | yes | yes | – | –
2 | Nc1nc2c(ncn2[C@@H]2O[C@H](COP(=O)(O)OP(=O)(O)O)[C@@H](OP(=O)(O)OP(=O)(O)O)[C@H]2O)c(=O)[nH]1 | – | – | yes | yes
